Results taken from patent US9441003B2, “Membrane staining dyes containing phosphorescent transition metal polypyridine complexes” (City University of Hong Kong, priority 2014, dated 2016).

Legend:
Format in all cases: cell-based
HeLa cells = test: Confocal microscopy imaging of HeLa cells treated with complexes; conditions: 50 μM, 37° C., 1 h, excitation 405 nm
Procedure: (§1) Experiments were conducted to show the working of the staining dye of the present invention. HeLa and MCF-7 cells were grown on sterile glass coverslips in a 60-mm tissue culture dish and incubated at 37° C. under a 5% CO2 atmosphere for 48 h. The culture medium was removed and replaced with medium/DMSO (99:1, v/v) containing the complex at a concentration of 50 μM. After incubation for 1 h, the coverslips were washed with PBS (5 mL×3), and then mounted onto slides for measurements. Imaging was performed using a confocal microscope (Leica TCS SPE) with an excitation wavelength at 405 nm. The emission was measured using a long-pass filter at 532 nm. FIG. 6 illustrates experimental results with fluorescence laser-scanning confocal microscopy images of HeLa cells treated with complexes (50 μM) at 37° C. for 1 h. FIG. 7 illustrates experimental results with fluorescence laser-scanning confocal microscopy images of MCF-7 cells treated with complexes (50 μM) at 37° C. for 1 h.

MCF-7 cells [1] = test: Confocal microscopy imaging of MCF-7 cells treated with complexes; conditions: 50 μM, 37° C., 1 h, excitation 405 nm
Procedure: as §1

MCF-7 cells [2] = test: Co-staining with CellMask deep red plasma membrane stain; conditions: complex 50 μM 1 h, CellMask deep red plasma membrane stain 0.25 μL/ml 5 min
Procedure: Further experiments were conducted to co-stain cells with the complex [Ir(ppyCH2NH—C10)2(bpy-tris)]Cl and the CellMask™ deep red plasma membrane stain. […] Please see FIG. 8 showing fluorescence laser-scanning confocal microscopy images of MCF-7 cells treated with the bpy-tris complex (50 μM, 1 h) and the CellMask™ deep red plasma membrane stain (0.25 μL/ml, 5 min).

Compound | cellular staining pattern (membrane staining / localization) (HeLa cells) | cellular staining pattern (membrane staining / localization) (MCF-7 cells [1]) | colocalization coefficient (MCF-7 cells [2])
Cc1ccnc(-c2cc(C(=O)O)ccn2)c1 [bpy-COOH] | much better membrane staining | much better membrane staining | –
[Ir(ppyCH2NH—C10)2(bpy-tris)]Cl | much better membrane staining | much better membrane staining | 92.9%
